Our source for the IC50 values is patent USRE35593E (priority 1989, dated 1997).

Test [1] has as its target muscarinic receptors. The test is classed as binding, Hooded Lister rats. The note with it: 0.27 nM 3H-QNB; rat cerebral cortex; 37° C., 30 min; pH 7.7; non-specific: 1 μM Atropine sulphate.
The target in test [2] is muscarinic receptors. Kind of test: Radio ligand binding: displacement of muscarinic agonist 3H-OXO-M (3H-Oxotremorine-M), rat cerebral cortex membranes. On the set-up: species or system Hooded Lister rats. Conditions: 2 nM 3H-OXO-M, 2 mM magnesium chloride, 37° C., 30 min, pH 7.7, non-specific: 10 μM Oxotremorine.

Counter-ions that a name gives are not always drawn. Like-named read-outs stand apart in the source and are kept apart here.

Take `CON=C(Cl)[C@H]1CN2CC[C@H]1C2` (relative stereo) [Example E8, (±) exo-1-Azabicyclo[2.2.1]hept-3-yl-N-methoxycarboximidoyl chloride oxalate salt]: the IC50 against muscarinic receptors [1] worked out at 3330 nM; at muscarinic receptors [2], 64 nM.
On to `CON=C(Cl)[C@@H]1CN2CC[C@H]1C2` (relative stereo) [Example E16, (±) endo-1-Azabicyclo[2.2.1]hept-3-yl -N-methoxycarboximidoyl chloride oxalate salt], for which the results for the IC50 against muscarinic receptors [1] and on muscarinic receptors [2] were 7000 nM and 99 nM, respectively.
For `CON=C(C#N)[C@@H]1CN2CC[C@H]1C2` (relative stereo) [Example E17, (±) endo-α-(Methoxyimino)-α-(1-azabicyclo[2.2.1]hept-3-yl)acetonitrile oxalate salt], in that order: 3600 nM and 16 nM.
For the molecule `CON=C(CC#N)[C@H]1CN2CC[C@H]1C2` (relative stereo) [Example E27, (±) exo- and endo-3-Oxo-3-(1-azabicyclo[2.2.1]hept-3-yl)propionitrile-O-methyl oxime oxalate salts], the figures for the IC50 on muscarinic receptors [1] and on muscarinic receptors [2] were 1100 nM and 71 nM, respectively.
For `CCON=C(C#N)[C@H]1CN2CC[C@H]1C2` (relative stereo) [Example E22, (±) exo-α-(Ethoxyimino)-α-(1-azabicyclo[2.2. 1]hept-3-yl)acetonitrile oxalate salt], the IC50 at muscarinic receptors [1] is 10000 nM; at muscarinic receptors [2], 233 nM.
As for `CON=C(C1CC1)C1CN2CCC1CC2` (racemic) [Example E15, (±) 1-Azabicyclo[2.2.2]oct-3-yl cyclopropyl ketone trans-O-methyloxime hydrochloride salt], the figures for the IC50 at muscarinic receptors [1] and on muscarinic receptors [2] were 22200 nM and 386 nM, respectively.
For the molecule `C#CCON=C(Cl)[C@H]1CN2CC[C@H]1C2` (relative stereo) [Example E24, (±) exo- and endo-1-Azabicyclo[2.2.1]hept-3-yl-N-prop-2-ynyloxycarboximidoyl chloride oxalate salts], the half-maximal inhibitory concentration (IC50) at muscarinic receptors [1] is 2100 nM; on muscarinic receptors [2], 112 nM.
On to `CCON=C(Cl)[C@H]1CN2CC[C@H]1C2` (relative stereo) [Example E21, (±) exo-1-Azabicyclo[2.2.1]hept-3-yl-N-ethoxy carboximidoyl chloride oxalate salt], for which the IC50 against muscarinic receptors [1] came to 15500 nM; at muscarinic receptors [2] it was 570 nM.
For the molecule `CON=C(Cl)C12CCCN(CC1)C2` (racemic) [Example E5, (±) 1-Azabicyclo[3.2.1]oct-5-yl-N-methoxycarboximidoyl chloride oxalate salt], the IC50 at muscarinic receptors [1] stood at 3820 nM; on muscarinic receptors [2] it was 72 nM.
As for `C#CC(=NOC)C12CCCN(CC1)C2` (racemic) [Example E4, (±) 1-Azabicyclo[3.2.1]oct-5-yl ethynyl ketone O-methyloxime oxalate salt], the concentration for half-maximal inhibition (IC50) was 1460 nM against muscarinic receptors [1] and 162 nM at muscarinic receptors [2].
Regarding `CON=C(OC)C1CN2CCC1CC2` (racemic) [Example E2, (±) 1-Azabicyclo2.2.2]oct-3-yl-N-methoxycarboximidic acid methyl ester oxidate salt], the IC50 was determined as 8000 nM at muscarinic receptors [1] and 1000 nM on muscarinic receptors [2].
For `CON=C(Br)[C@@H]1CN2CC[C@H]1C2` (relative stereo) [Example E19, (±) exo- and endo-1-Azabicyclo[2.2.1]hept-3-yl-N-methoxycarboximidoyl bromide oxalate salts], in that order: 3600 nM and 127 nM.
As to `CON=C(Br)[C@H]1CN2CC[C@H]1C2` (relative stereo) [Example E18, (±) exo- and endo-1-Azabicyclo[2.2.1]hept-3-yl-N-methoxycarboximidoyl bromide oxalate salts], the IC50 stood at 11000 nM on muscarinic receptors [1] and 46 nM at muscarinic receptors [2].
Consider `CON=C(F)C12CCN(CC1)C2` [Example E14, 1-Azabicyclo[2.2.1]hept-4-yl-N-methoxycarboximidoyl fluoride oxalate salt], for which the values for the IC50 against muscarinic receptors [1] and on muscarinic receptors [2] were 15500 nM and 48 nM, respectively.
Turning to `CON=C(Cl)C1CN2CCC1CC2` (racemic) [Example E1, (±) 1-Azabicyclo[2.2.2]oct-3-yl-N-methoxycarboximidoyl chloride oxalate salt], the values for the IC50 at muscarinic receptors [1] and at muscarinic receptors [2] were 897 nM and 93 nM, respectively.
Turning to `CON=C(Cl)C12CCN(CC1)C2` [Example E11, 1-Azabicyclo[2.2.1]hept-4-yl-N-methoxycarboximidoyl chloride oxalate salt], the IC50 was found to be 9000 nM against muscarinic receptors [1] and 38 nM at muscarinic receptors [2].
Turning to `CON=C(C#N)C12CCN(CC1)C2` [Example E12, α-(Methoxyimino)-α-(1-azabicyclo[2.2.1]hept-4-syl)acetonitrilehydrochloride salt], the IC50 amounted to 2000 nM against muscarinic receptors [1] and 21 nM on muscarinic receptors [2].
With `CON=C(CC#N)[C@@H]1CN2CC[C@H]1C2` (relative stereo) [Example E28, (±) exo- and endo-3-Oxo-3-(1-azabicyclo[2.2.1]hept-3-yl)propionitrile-O-methyl oxime oxalate salts], the IC50 on muscarinic receptors [1] was found to be 16500 nM; at muscarinic receptors [2], 750 nM.
As for `CON=C(F)C1CN2CCC1CC2` (racemic) [Example E10, (±) 1-Azabicyclo[2.2.2]oct-3-yl-N-methoxycarboximidoyl fluoride oxalate salt], the IC50 against muscarinic receptors [1] amounted to 2110 nM; on muscarinic receptors [2] it was 34 nM.
With `CON=C(C#N)C12CCCN(CC1)C2` (racemic) [Example E6, (±) α-(Methoxyimino)-α-(1-azabicyclo[3.2.1]oct-5-yl) acetonitrile hydrochloride salt], the results for the IC50 on muscarinic receptors [1] and on muscarinic receptors [2] were 251 nM and 114 nM, respectively.
`CON=C(Br)C12CCN(CC1)C2` [Example E13, 1-Azabicyclo[2.2.1]hept-4-yl-N-methoxycarboximidoyl bromide oxalate salt]: the values for the IC50 on muscarinic receptors [1] and at muscarinic receptors [2] were 10000 nM and 170 nM, respectively.
As for `CON=C(Br)C12CCCN(CC1)C2` (racemic) [Example E7, (±) 1-Azabicyclo[3.2. ]oct-5-yl-N-methoxycarboximidonyl bromide oxalate salt], the IC50 at muscarinic receptors [1] was found to be 2850 nM; on muscarinic receptors [2], 190 nM.
Regarding `CON=C(C#N)[C@H]1CN2CC[C@H]1C2` (relative stereo) [Example E9, (±) exo-α-(Methoxyimino)-α-(1-azabicyclo[2.2.1]hept-3-yl)acetonitrile hydrochloride salt], the IC50 against muscarinic receptors [1] was found to be 2100 nM; at muscarinic receptors [2] it was 25 nM.
Turning to `CON=C(F)[C@H]1CN2CC[C@H]1C2` (relative stereo) [Example E20, (±) exo-1-Azabicyclo[2.2.1]hept-3-yl-N-methoxy carboximidoyl fluoride oxalate salt], the IC50 at muscarinic receptors [1] turned out to be 3000 nM; at muscarinic receptors [2], 11 nM.

What is called IC50 is the midpoint of a concentration-inhibition curve. Read a low IC50 as inhibition by little substance.
